# Tests used:
# [1] = tested on: A2780 ovarian cancer cell line; test: Cytotoxicity against A2780 ovarian cancer cell line; conditions: for IC50(cp)/IC50(tx) A2780: ratio of compound IC50 to Taxol IC50, A2780; for Cytotoxicity (IC50, μg/ml) A2780: Example 2, A2780
# purified tubulin = conditions: for EC50: read-out: ED50, Tb polymerization, Tubulin concentration 5 μM
# PC-3 prostate cell line = test: Cytotoxicity against PC3 prostate cancer cell line; conditions: for IC50(cp)/IC50(tx) PC3: ratio of compound IC50 to Taxol IC50, PC3
# GDP-tubulin = test: Critical concentration determination of tubulin assembly; assay type: biochemical; conditions: Taxoid concentration 10 μM; 37° C., PME buffer, 4% DMSO
# Method: Critical Concentration Determination. The critical concentration of tubulin in the presence of 10 μM Taxol or Taxol analog was determined from assembly experiments performed at 37° C. with GDP-tubulin in PME buffer (100 mM PIPES, 2 mM MgSO4, 1 mM EGTA, pH=6.90) containing 4% DMSO. The extent of assembly was measured at different tubulin concentrations (0.5-6 μM) by light scattering (apparent absorption at 350 nm). Critical concentrations were calculated from the x-intercepts of plots of apparent A350 nm VS. tubulin concentration.
# [2] = tested on: Taxol binding site on crosslinked microtubules (polymerized tubulin); test: Competition binding with fluorescent Taxol N-AB-PT; conditions: for Inhibit binding F-Taxol: 10 μM Taxol or Taxoid, 5 μM N-AB-PT, 5 μM crosslinked microtubules; for competition experiment with fluorescent Taxol, compared with Taxol/PTX: N-AB-PT 5 μM, increasing competitor (0-30 μM), FIG. 14
# Method: Competition Binding Experiments. The relative affinities of Taxol and derivatives for polymerized tubulin were assessed by competition assays. Crosslinked microtubules were prepared in glycerol assembly buffer (10 mM phosphate, 1 mM EGTA, 0.1 mM GTP 3.4 M glycerol, pH 6.9) as described by Andreu and Barasoain. Prior to use, the crosslinked microtubules were dialyzed against PME buffer for 16-18 hr. Crosslinked microtubules (5 μM) and the fluorescent Taxol derivative N-AB-PT (15, 5 μM) in PME buffer were incubated for 20 min at room temperature with 10 μM of Taxol or the Taxoid. The fluorescence emission intensity at 412 nm of each sample was recorded using a Jobin-Yvon Horiba Fluoromax-3 spectrofluorometer in a 2 mm×10 mm quartz cell (1ex=320 nm) and compared to the emission intensity of the system in the absence of competitor.
# For the fall competition experiment, microtubules, N-AB-PT and varying concentrations of Taxol or 13b (0-30 μM) were treated in the same manner and their emission intensities were measured. The full competition experiment was repeated using pure tubulin assembled by N-AB-PT and identical results were obtained (data not shown).
structure (smiles),measurement,setting,value
C=CC(=O)O[C@@]12CO[C@@H]1C[C@H](O)[C@@]1(C)C(=O)[C@H](OC(C)=O)C3=C(C)[C@@H](OC(=O)[C@H](O)[C@@H](NC(=O)c4ccccc4)c4ccccc4O/C=C\C)C[C@@](O)([C@@H](OC(=O)c4ccccc4)C12)C3(C)C (stereo partly drawn) [Compound 12b],"cytotoxicity against A2780 in words, compared with PTX/Taxol or related analogs",[1]; A2780,over three orders of magnitude less cytotoxic
same,IC50(cp)/IC50(tx) A2780,[1],1190
same,EC50,purified tubulin,1020 ± 370 nM
same,"cytotoxicity against PC3 in words, compared with PTX/Taxol",PC-3 prostate cell line,over two orders of magnitude less cytotoxic
same,IC50(cp)/IC50(tx) PC3,PC-3 prostate cell line,150
CC(=O)O[C@H]1C(=O)[C@@]2(C)[C@@H]3[C@H](OC(=O)c4ccccc4)[C@]4(O)C[C@H](OC(=O)[C@H](O)[C@@H](NC(=O)c5ccccc5)c5ccccc5C/C=C\C(=O)O[C@]35CO[C@@H]5C[C@@H]2O)C(C)=C1C4(C)C [Compound 13a],Critical Tb conc.,GDP-tubulin,0.53 ± 0.07 µM
same,"cytotoxicity against A2780 in words, compared with PTX/Taxol or related analogs",[1]; A2780,approximately twenty times more potent than Taxol
same,fold more potent than previous best analog 15,[1]; A2780,approximately 300 fold
same,IC50(cp)/IC50(tx) A2780,[1],0.045
same,EC50,purified tubulin,300 ± 90 nM
same,"cytotoxicity against PC3 in words, compared with PTX/Taxol",PC-3 prostate cell line,slightly more cytotoxic than Taxol
same,IC50(cp)/IC50(tx) PC3,PC-3 prostate cell line,0.69
same,Inhibit binding F-Taxol,[2],72%
CC(=O)O[C@H]1C(=O)[C@@]2(C)[C@@H]3[C@H](OC(=O)c4ccccc4)[C@]4(O)C[C@H](OC(=O)[C@H](O)[C@@H](NC(=O)c5ccccc5)c5ccccc5OC/C=C/C(=O)O[C@]35CO[C@@H]5C[C@@H]2O)C(C)=C1C4(C)C [Compound 13b],Critical Tb conc.,GDP-tubulin,1.2 ± 0.24 µM
same,"cytotoxicity against A2780 in words, compared with PTX/Taxol or related analogs",[1]; A2780,equipotent with Taxol
same,IC50(cp)/IC50(tx) A2780,[1],0.97
same,EC50,purified tubulin,280 ± 110 nM
same,"cytotoxicity against PC3 in words, compared with PTX/Taxol",PC-3 prostate cell line,equipotent with Taxol
same,IC50(cp)/IC50(tx) PC3,PC-3 prostate cell line,1.0
same,Inhibit binding F-Taxol,[2],30%
same,"competition experiment with fluorescent Taxol, compared with Taxol/PTX",[2],equal affinity
C=CCOc1ccccc1C(NC(=O)c1ccccc1)C(O)C(=O)OC1CC2(O)C(OC(=O)c3ccccc3)C3C4(OC(=O)C=C)COC4CC(O)C3(C)C(=O)C(OC(C)=O)C(=C1C)C2(C)C (stereo not drawn) [Compound 13c],"cytotoxicity against A2780 in words, compared with PTX/Taxol or related analogs",[1]; A2780,almost inactive
same,"cytotoxicity against PC3 in words, compared with PTX/Taxol",PC-3 prostate cell line,almost inactive
C=CCCC(=O)OC12COC1CC(O)C1(C)C(=O)C(OC(C)=O)C3=C(C)C(OC(=O)C(O)C(NC(=O)c4ccccc4)c4cccc(C=C)c4)CC(O)(C(OC(=O)c4ccccc4)C21)C3(C)C (stereo not drawn) [Compound 13h],"cytotoxicity against A2780 in words, compared with PTX/Taxol or related analogs",[1]; A2780,better cytotoxicites than their macrocyclic counter parts
C=CCCC(=O)OC12COC1CC(O)C1(C)C(=O)C(OC(C)=O)C3=C(C)C(OC(=O)C(O)C(NC(=O)c4ccccc4)c4ccccc4OCC=C)CC(O)(C(OC(=O)c4ccccc4)C21)C3(C)C (stereo not drawn) [Compound 13i],"cytotoxicity against A2780 in words, compared with PTX/Taxol or related analogs",[1]; A2780,better cytotoxicites than their macrocyclic counter parts
CC(=O)OC1C(=O)C2(C)C(O)CC3OCC34OC(=O)CCCc3ccccc3C(NC(=O)c3ccccc3)C(O)C(=O)OC3CC(O)(C(OC(=O)c5ccccc5)C42)C(C)(C)C1=C3C (stereo not drawn) [Compound 14a],Critical Tb conc.,GDP-tubulin,0.35 ± 0.06 µM
same,"cytotoxicity against A2780 in words, compared with PTX/Taxol or related analogs",[1]; A2780,more potent than Taxol
same,IC50(cp)/IC50(tx) A2780,[1],0.08
same,EC50,purified tubulin,210 ± 90 nM
same,"cytotoxicity against PC3 in words, compared with PTX/Taxol",PC-3 prostate cell line,more potent than Taxol
same,IC50(cp)/IC50(tx) PC3,PC-3 prostate cell line,0.67
same,Inhibit binding F-Taxol,[2],79%
CC(=O)OC1C(=O)C2(C)C(O)CC3OCC34OC(=O)CCCOc3ccccc3C(NC(=O)c3ccccc3)C(O)C(=O)OC3CC(O)(C(OC(=O)c5ccccc5)C42)C(C)(C)C1=C3C (stereo not drawn) [Compound 14b],Critical Tb conc.,GDP-tubulin,1.3 ± 0.33 µM
same,"cytotoxicity against A2780 in words, compared with PTX/Taxol or related analogs",[1]; A2780,slightly less potent
same,IC50(cp)/IC50(tx) A2780,[1],1.2
same,EC50,purified tubulin,830 ± 190 nM
same,"cytotoxicity against PC3 in words, compared with PTX/Taxol",PC-3 prostate cell line,slightly less potent
same,IC50(cp)/IC50(tx) PC3,PC-3 prostate cell line,3.3
same,Inhibit binding F-Taxol,[2],7%
CC(=O)O[C@H]1C(=O)[C@@]2(C)[C@@H]3[C@H](OC(=O)c4ccccc4)[C@]4(O)C[C@H](OC(=O)[C@H](O)[C@@H](NC(=O)c5ccccc5)c5ccccc5/C=C/CC(=O)O[C@]35CO[C@@H]5C[C@@H]2O)C(C)=C1C4(C)C [Compound 15J],fold more cytotoxicity compared to PTX,"[1]; A2780 cell line, cell line not named",6 fold
same,"tubulin polymerization activity in words, compared to PTX",purified tubulin,superior to PTX
same,fold more cytotoxicity compared to PTX against PC3,PC-3 prostate cell line; PC3 cell line,2 fold
same,"inhibition of binding of fluorescent taxol, compared with paclitaxel, in words",[2],better than paclitaxel
CC(=O)O[C@H]1C(=O)[C@@]2(C)[C@@H]3[C@H](OC(=O)c4ccccc4)[C@]4(O)C[C@H](OC(=O)[C@H](O)[C@@H](NC(=O)c5ccccc5)c5ccccc5OC/C=C/C(=O)O[C@]35CO[C@@H]5C[C@@H]2O)C(C)=C1C4(C)C [Compound 15b],"cytotoxicity against A2780 in words, compared with PTX/Taxol or related analogs",[1]; A2780,more or less equal cytotoxicity
same,"tubulin polymerization activity in words, compared to PTX",purified tubulin,superior to PTX
same,"cytotoxicity against PC3 in words, compared with PTX/Taxol",PC-3 prostate cell line,two fold more cytotoxicity than PTX
same,"inhibition of binding of fluorescent taxol, compared with paclitaxel, in words",[2],better than paclitaxel
same,"competition experiment with fluorescent Taxol, compared with Taxol/PTX",[2],identical in all respect to PTX
CC(=O)O[C@H]1C(=O)[C@@]2(C)[C@@H]3[C@H](OC(=O)c4ccccc4)[C@]4(O)C[C@H](OC(=O)[C@H](O)[C@@H](NC(=O)c5ccccc5)c5ccccc5OCC/C=C/C(=O)O[C@]35CO[C@@H]5C[C@@H]2O)C(C)=C1C4(C)C [Compound 15c],"cytotoxicity against A2780 in words, compared with PTX/Taxol or related analogs",[1]; A2780,more or less equal cytotoxicity
same,"cytotoxicity against PC3 in words, compared with PTX/Taxol",PC-3 prostate cell line,more or less equal cytotoxicity
CC(=O)O[C@H]1C(=O)[C@@]2(C)[C@@H]3[C@H](OC(=O)c4ccccc4)[C@]4(O)C[C@H](OC(=O)[C@H](O)[C@@H](NC(=O)c5ccccc5)c5cccc(c5)OC/C=C\CCC(=O)O[C@]35CO[C@@H]5C[C@@H]2O)C(C)=C1C4(C)C [Compound 15e],"tubulin polymerization activity in words, compared to PTX",purified tubulin,comparable
CC(=O)O[C@H]1C(=O)[C@@]2(C)[C@@H]3[C@H](OC(=O)c4ccccc4)[C@]4(O)C[C@H](OC(=O)[C@H](O)[C@@H](NC(=O)c5ccccc5)c5cccc(c5)/C=C\CCC(=O)O[C@]35CO[C@@H]5C[C@@H]2O)C(C)=C1C4(C)C [Compound 15f],"tubulin polymerization activity in words, compared to PTX",purified tubulin,comparable
CC(=O)O[C@H]1C(=O)[C@@]2(C)[C@@H]3[C@H](OC(=O)c4ccccc4)[C@]4(O)C[C@H](OC(=O)[C@H](O)[C@@H](NC(=O)c5ccccc5)c5ccccc5OCCCC(=O)O[C@]35CO[C@@H]5C[C@@H]2O)C(C)=C1C4(C)C [Compound 16b],"cytotoxicity against A2780 in words, compared with PTX/Taxol or related analogs",[1]; A2780,more or less equal cytotoxicity
same,"tubulin polymerization activity in words, compared to PTX",purified tubulin,superior to PTX
same,"cytotoxicity against PC3 in words, compared with PTX/Taxol",PC-3 prostate cell line,more or less equal cytotoxicity
same,"inhibition of binding of fluorescent taxol, compared with paclitaxel, in words",[2],better than paclitaxel
CC(=O)O[C@H]1C(=O)[C@@]2(C)[C@@H]3[C@H](OC(=O)c4ccccc4)[C@]4(O)C[C@H](OC(=O)[C@H](O)[C@@H](NC(=O)c5ccccc5)c5ccccc5OCCCCC(=O)O[C@]35CO[C@@H]5C[C@@H]2O)C(C)=C1C4(C)C [Compound 16c],"cytotoxicity against A2780 in words, compared with PTX/Taxol or related analogs",[1]; A2780,more or less equal cytotoxicity
same,"cytotoxicity against PC3 in words, compared with PTX/Taxol",PC-3 prostate cell line,more or less equal cytotoxicity
CC(=O)O[C@H]1C(=O)[C@@]2(C)[C@@H]3[C@H](OC(=O)c4ccccc4)[C@]4(O)C[C@H](OC(=O)[C@H](O)[C@@H](NC(=O)c5ccccc5)c5cccc(c5)OCCCCCC(=O)O[C@]35CO[C@@H]5C[C@@H]2O)C(C)=C1C4(C)C [Compound 16e],"cytotoxicity against A2780 in words, compared with PTX/Taxol or related analogs",[1]; A2780,much less than the unsaturated 15e and 15f
CC(=O)O[C@H]1C(=O)[C@@]2(C)[C@@H]3[C@H](OC(=O)c4ccccc4)[C@]4(O)C[C@H](OC(=O)[C@H](O)[C@@H](NC(=O)c5ccccc5)c5cccc(c5)CCCCC(=O)O[C@]35CO[C@@H]5C[C@@H]2O)C(C)=C1C4(C)C [Compound 16f],"cytotoxicity against A2780 in words, compared with PTX/Taxol or related analogs",[1]; A2780,much less than the unsaturated 15e and 15f
O=C1/C=C/COc2cccc(c2)[C@H](NC(=O)c2ccccc2)[C@@H](O)C(=O)OC2CC3CC(CO1)C(OC(=O)c1ccccc1)C(C3)C2 (stereo partly drawn) [Compound 20b],"cytotoxicity against A2780 in words, compared with PTX/Taxol or related analogs",[1]; A2780,less active than 18 and 19
same,"Cytotoxicity (IC50, μg/ml) A2780",[1],>100 µg/mL
"CC(=O)O[C@H]1C(=O)[C@@]2(C)[C@H]([C@H](OC(=O)c3ccccc3)[C@]3(O)C[C@H](OC(=O)[C@H](O)[C@@H](NC(=O)c4ccccc4)c4ccccc4)C(C)=C1C3(C)C)[C@]1(OC(C)=O)CO[C@@H]1C[C@@H]2O [Taxol, Paclitaxel]",Critical Tb conc.,GDP-tubulin,1.8 ± 0.30 µM
same,"Cytotoxicity (IC50, μg/ml) A2780",[1],0.02 µg/mL
same,EC50,purified tubulin,500 ± 140 nM
same,Inhibit binding F-Taxol,[2],26%

# Source: patent US7312240B2, “Conformationally constrained paclitaxel analogs and their use as anticancer and anti-Alzheimers agents” (Virginia Tech Intellectual Properties, Inc., priority 2004, dated 2007)
